Tested on: H3N2 A/Hong Kong/1/1968 virus
Format: cell-based, influenza A virus

In the case of CC(=O)N[C@H]1[C@H]([C@H](O)[C@H](O)CO)OC(C(=O)O)=C[C@@H]1N=C(N)N [Zanamivir, zanamivir], the “inhibition of cell-to-cell spread of the virus” value is reported as “efficient inhibition of cell-to-cell virus spread”.

Source: US12496336B2 (priority 2019, dated 2025)
